Results from US9757375B2, “Compounds that inhibit human DNA ligases and methods of treating cancer” (University of Maryland, Baltimore, priority 2007, dated 2017).
Where two headings read alike, the source gives them in different places. Marks after values point to notes of the source that are not given here.

Key:
HCT116 and MCF10A cells = assay: Screen for potentiation of DNA damaging agents, cell line not stated with the result; type: cell-based, human; conditions: 50 μM, 2 gray of ionizing radiation
From the text: (§1) The 192 human DNA ligase inhibitors were screened in parallel for effects on proliferation and the ability to potentiate the effects of several DNA damaging agents using two cell human lines, a colon cancer line HCT116 and a normal breast epithelial cell line MCF10A using a Biomek FX Laboratory Automation Workstation as described (23). The DNA damaging agents used, methyl methanesulfonate (MMS), camptothecin, cis-platinum, 3 aminobenzamide and ionizing radiation, are representatives of classes of agents used to treat cancer. Briefly, HCT116 and MCF10A cells were plated in 96 well plates such that the cultures were about 80% confluent after 5 days incubation. Compounds were added to the cultures at either 15 μM or 50 μM 1 day after plating. After incubation for 3 days, cell lysed in a solution containing 1.2% Igepal CA-630 and SYBR green that stains DNA (1:1000, Molecular Probes, Eugene, Oreg.). Subsequently, fluorescence was measured per well. The studies with DNA damaging agents were performed as follows. […] For ionizing radiation, cells were pre-incubated with the compounds at 50 μM for 1 hour prior to exposure to 2 gray of ionizing radiation. Cultures were incubated for 3 days and then treated as above.

hLigI = target: T1, hLigI (Homo sapiens, UniProt P18858); assay: High-throughput fluorescence-based DNA joining (ligation) assay; type: biochemical
T1 construct: made in house
T1 sequence (P18858 whole entry): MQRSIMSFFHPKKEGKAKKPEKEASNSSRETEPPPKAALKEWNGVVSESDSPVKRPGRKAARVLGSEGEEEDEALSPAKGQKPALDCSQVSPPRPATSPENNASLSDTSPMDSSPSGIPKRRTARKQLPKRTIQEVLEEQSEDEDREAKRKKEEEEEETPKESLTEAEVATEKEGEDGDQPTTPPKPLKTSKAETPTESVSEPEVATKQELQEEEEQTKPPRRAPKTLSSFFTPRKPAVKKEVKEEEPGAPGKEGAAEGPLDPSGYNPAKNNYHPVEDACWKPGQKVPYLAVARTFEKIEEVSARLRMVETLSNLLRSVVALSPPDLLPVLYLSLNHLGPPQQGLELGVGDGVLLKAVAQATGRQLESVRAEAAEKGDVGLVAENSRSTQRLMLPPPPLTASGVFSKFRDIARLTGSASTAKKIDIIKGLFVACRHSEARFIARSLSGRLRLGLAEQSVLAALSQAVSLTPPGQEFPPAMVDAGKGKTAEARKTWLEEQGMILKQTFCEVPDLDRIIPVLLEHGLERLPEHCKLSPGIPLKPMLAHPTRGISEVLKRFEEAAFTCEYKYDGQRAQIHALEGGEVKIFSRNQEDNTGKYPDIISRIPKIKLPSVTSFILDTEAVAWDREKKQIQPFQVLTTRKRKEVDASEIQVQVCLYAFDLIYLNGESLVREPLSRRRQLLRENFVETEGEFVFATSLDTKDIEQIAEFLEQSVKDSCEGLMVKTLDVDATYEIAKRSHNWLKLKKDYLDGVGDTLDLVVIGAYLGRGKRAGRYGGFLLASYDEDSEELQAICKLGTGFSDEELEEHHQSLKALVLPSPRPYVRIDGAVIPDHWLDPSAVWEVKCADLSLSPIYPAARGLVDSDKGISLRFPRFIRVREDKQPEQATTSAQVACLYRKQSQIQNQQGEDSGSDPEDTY
Protocol: Candidate ligase inhibitors identified by CADD were assayed for their ability to inhibit hLigI and T4 DNA ligase using a high-throughput, fluorescence energy transfer-based DNA joining assay (22). Duplicate reactions (30 μL) containing 10 pmol of nicked DNA substrate and either 0.25 pmol of hLigI or 10 units of T4 DNA ligase were incubated in the presence or absence of 100 μmol/L of the putative inhibitor. DNA binding by the candidate DNA ligase inhibitors was measured by displacement of ethidium bromide from DNA as previously described (30).
(§2) The method for screening compounds comprises testing the compound for the ability to inhibit human DNA ligases I, III and IV with a high throughput fluorescence-based ligation assay. In this assay, phosphodiester bond formation covalently links together two oligonucleotides, one of which is a fluorescent donor AF488 that is 11 nucleotides from the 3′ terminus and the other contains a fluorescence acceptor and quencher, BHQ1 that is 15 nucleotides from the 5′ terminus. When these oligonucleotides are present in separate duplexes and in the same nicked or intact duplex, there is no significant quenching of fluorescence because the donor and acceptor are too far apart. As single-strands neither the AF488 oligonucleotide nor the BHQ1 oligonucleotides have significant secondary structure. However, when these oligonucleotides are ligated together, the resultant single strand forms a stable hairpin structure, in which the AF488 and BHQ1 groups are very close together, resulting in efficient intra-molecular quenching of fluorescence. Thus, in the DNA joining assay, the DNA substrate is denatured after incubation with the DNA ligase and then renatured in the presence of a 20-fold excess of an oligonucleotide that is identical to the ligated strand containing the fluorescent door and acceptor except that it lacks these modifications. Using this assay, DNA joining, which results in reduced fluorescence at 518 nm, can be measured rapidly, quantitatively and with high-throughput using a fluorescence plate reader.
(§3) Applicants developed a novel high throughput fluorescence-based ligation assay by modifying the sequence of the oligos to optimize hairpin formation by the single strand ligated product of the high throughput fluorescence-based ligation assay of Chen et al (22). […] Compound stock solutions, which were 10 mM in 0.5% DMSO, were diluted in 0.5% DMSO. Human DNA ligases I and III were assayed with a nicked DNA substrate whereas as the substrate for human DNA ligase IV was two oligonucleotide duplexes with short complementary single strand ends.

HCT116 cells [1] = assay: Screen for potentiation of DNA damaging agents (MMS, camptothecin, cis-platinum, 3 aminobenzamide, ionizing radiation); type: cell-based, human
From the text: as §1

HCT116 cells [2] = assay: MTT cell growth assay; type: cell-based, human; conditions: cell growth, compound alone, read-out: IC50 (μM) HCT116
Protocol: (§4) The activity of hits from the initial screen was further validated using the MTT assay. Briefly, MCF10A and HCT116 cells were seeded in 96 well plates at 300 and 1200 cells per well, respectively, and allowed to adhere overnight. The following day, serial dilutions of compounds in media were added to the cells in a final volume 200 μl. After incubation for 5 days, MTT reagent (3-(4,5-dimthylthiazol-2-yl)-2,5-diphenyltatrazolium) was added and incubation was continued for 4 h. Formazan crystals generated by reduction of the MTT reagent in mitochondria were solubilized with isopropanol prior to the measurement of absorbance at 560 nm wavelength in a plate reader.
After incubation for 5 days, cell growth was measured by the MTT assay (16).

human DNA ligase III = target: T2, human DNA ligase III (Homo sapiens, UniProt P49916); assay: High-throughput fluorescence-based DNA joining (ligation) assay; type: biochemical
T2 sequence (P49916 1-862 isoform P49916-4): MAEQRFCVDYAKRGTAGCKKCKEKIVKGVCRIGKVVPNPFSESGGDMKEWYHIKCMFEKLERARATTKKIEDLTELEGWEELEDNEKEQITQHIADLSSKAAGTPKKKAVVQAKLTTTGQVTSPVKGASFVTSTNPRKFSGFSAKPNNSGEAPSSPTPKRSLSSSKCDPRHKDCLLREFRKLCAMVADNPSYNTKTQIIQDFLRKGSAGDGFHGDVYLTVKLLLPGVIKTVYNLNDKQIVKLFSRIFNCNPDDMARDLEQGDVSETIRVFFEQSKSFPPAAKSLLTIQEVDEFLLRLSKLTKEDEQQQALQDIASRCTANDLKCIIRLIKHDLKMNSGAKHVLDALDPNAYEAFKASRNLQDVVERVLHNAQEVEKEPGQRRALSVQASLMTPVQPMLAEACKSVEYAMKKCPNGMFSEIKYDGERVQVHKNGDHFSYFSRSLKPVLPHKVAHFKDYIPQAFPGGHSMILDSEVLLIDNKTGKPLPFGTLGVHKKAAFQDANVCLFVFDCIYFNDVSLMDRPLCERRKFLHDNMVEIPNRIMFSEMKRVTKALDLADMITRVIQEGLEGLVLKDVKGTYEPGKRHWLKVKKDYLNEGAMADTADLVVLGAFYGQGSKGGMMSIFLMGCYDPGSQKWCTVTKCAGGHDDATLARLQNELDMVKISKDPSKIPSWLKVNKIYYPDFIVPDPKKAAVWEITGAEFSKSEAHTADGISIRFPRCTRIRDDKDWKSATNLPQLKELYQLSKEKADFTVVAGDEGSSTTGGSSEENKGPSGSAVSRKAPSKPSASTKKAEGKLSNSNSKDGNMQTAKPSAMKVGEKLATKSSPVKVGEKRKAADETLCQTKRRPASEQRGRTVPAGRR
From the text: as §2, §3

human DNA ligase IV = human DNA ligase IV (Homo sapiens, UniProt P49917); assay: as above; type: biochemical
Sequence of human DNA ligase IV (P49917 whole entry): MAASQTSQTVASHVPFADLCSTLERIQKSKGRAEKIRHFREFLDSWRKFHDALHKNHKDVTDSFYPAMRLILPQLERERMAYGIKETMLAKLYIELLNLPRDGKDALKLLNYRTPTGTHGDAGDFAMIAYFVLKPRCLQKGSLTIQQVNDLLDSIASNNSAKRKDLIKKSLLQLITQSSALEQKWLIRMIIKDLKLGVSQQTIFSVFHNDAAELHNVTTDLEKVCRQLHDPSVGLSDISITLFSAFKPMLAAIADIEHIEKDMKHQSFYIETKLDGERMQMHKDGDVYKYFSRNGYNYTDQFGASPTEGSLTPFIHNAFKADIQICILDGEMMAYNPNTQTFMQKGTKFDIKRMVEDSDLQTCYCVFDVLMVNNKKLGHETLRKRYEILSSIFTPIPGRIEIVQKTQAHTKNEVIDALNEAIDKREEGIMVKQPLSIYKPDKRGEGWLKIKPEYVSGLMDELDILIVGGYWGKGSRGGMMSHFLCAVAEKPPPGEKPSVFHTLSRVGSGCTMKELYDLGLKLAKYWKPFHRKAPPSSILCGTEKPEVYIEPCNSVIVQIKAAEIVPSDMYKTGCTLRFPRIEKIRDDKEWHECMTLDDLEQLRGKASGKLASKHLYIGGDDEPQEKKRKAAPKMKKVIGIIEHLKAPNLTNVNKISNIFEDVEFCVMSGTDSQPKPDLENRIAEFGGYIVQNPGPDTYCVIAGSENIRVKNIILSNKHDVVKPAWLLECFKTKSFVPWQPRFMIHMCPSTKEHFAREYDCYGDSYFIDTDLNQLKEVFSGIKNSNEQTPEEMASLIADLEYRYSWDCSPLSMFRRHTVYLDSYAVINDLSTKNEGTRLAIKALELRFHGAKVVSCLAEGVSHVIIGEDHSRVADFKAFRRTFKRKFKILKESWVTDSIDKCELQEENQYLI
Sequence of human DNA ligase IV (Q13426 whole entry partner): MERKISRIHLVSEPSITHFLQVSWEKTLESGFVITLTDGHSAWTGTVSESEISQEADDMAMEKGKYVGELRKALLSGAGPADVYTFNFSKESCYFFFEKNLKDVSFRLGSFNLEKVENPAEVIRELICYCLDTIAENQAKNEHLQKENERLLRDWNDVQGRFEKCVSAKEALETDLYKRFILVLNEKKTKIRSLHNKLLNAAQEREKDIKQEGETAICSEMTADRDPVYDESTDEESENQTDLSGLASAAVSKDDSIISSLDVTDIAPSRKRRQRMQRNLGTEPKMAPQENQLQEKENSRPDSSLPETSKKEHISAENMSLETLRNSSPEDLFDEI
From the text: as §2, §3

MCF10A cells [3] = assay: Screen for potentiation of DNA damaging agents (MMS, camptothecin, cis-platinum, 3 aminobenzamide, ionizing radiation); type: cell-based, human
From the text: The 192 human DNA ligase inhibitors were screened in parallel for effects on proliferation and the ability to potentiate the effects of several DNA damaging agents using two cell human lines, a colon cancer line HCT116 and a normal breast epithelial cell line MCF10A using a Biomek FX Laboratory Automation Workstation as described (23). The DNA damaging agents used, methyl methanesulfonate (MMS), camptothecin, cis-platinum, 3 aminobenzamide and ionizing radiation, are representatives of classes of agents used to treat cancer. Briefly, HCT116 and MCF10A cells were plated in 96 well plates such that the cultures were about 80% confluent after 5 days incubation. Compounds were added to the cultures at either 15 μM or 50 μM 1 day after plating. After incubation for 3 days, cell lysed in a solution containing 1.2% Igepal CA-630 and SYBR green that stains DNA (1:1000, Molecular Probes, Eugene, Oreg.). Subsequently, fluorescence was measured per well. The studies with DNA damaging agents were performed as follows. […] Cultures were incubated for 3 days and then treated as above.

MCF10A cells [4] = assay: MTT cell growth assay; type: cell-based, human; conditions: Homo sapiens, MCF-10A; sections 'high concentrations (~50 μM)' and 'active in vitro that decreased cell growth'; same figures given in μM elsewhere in Table 6; read-out: IC50 MCF10A (head without unit)
Protocol: as §4
To extend the results of the […] cell culture screening assay, a subset of compounds were tested in larger cultures. Different concentrations of Compounds 67 and 151 were added to asynchronous subconfluent populations of HCT116 and MCF10A cells. Asynchronous subconfluent populations of HCT116 and MCF10A cells were pre-treated with different concentrations of compound 64 prior to the addition of 3 aminobenzamide (2 mM) MMS (100 μM) or cis-platinum (1 μM). After incubation for 5 days, cell growth was measured by the MTT assay (16).

[5] = compound alone vs combination with 3-AB (2 mM), 1 = no sensitization

SMILES | radiosensitizer activity (HCT116 and MCF10A cells) | % of inhibition @ 100 μM (Helen's data) hLigI (hLigI; 100 μM) | Radiosensitizers: IC50 ratios HCT116 (HCT116 cells [1]; ionizing radiation) | IC50 (HCT116 cells [2]) | % of inhibition @ 100 μM (Helen's data) hLigIII (human DNA ligase III; 100 μM) | % of inhibition @ 100 μM (Helen's data) hLigIV (human DNA ligase IV; 100 μM) | Radiosensitizers: IC50 ratios MCF10A (MCF10A cells [3]; ionizing radiation) | inhibition at 100 µM (hLigI; read-out: % of inhibition @ 100 μM (Helen's data) hLigI) | IC50 ratios of non- and 3-AB treated cells HCT116 (HCT116 cells [1]; [5]) | MMS: Ratios of IC50 HCT116 (HCT116 cells [1]; compound alone vs combination with MMS (100 μM), 1 = no sensitization) | IC50 (HCT116 cells [2]; Homo sapiens, HCT-116) | inhibition at 100 µM (human DNA ligase III; read-out: % of inhibition @ 100 μM (Helen's data) hLigIII) | inhibition at 100 µM (human DNA ligase IV; read-out: % of inhibition @ 100 μM (Helen's data) hLigIV) | IC50 (MCF10A cells [4]) | IC50 ratios of non- and 3-AB treated cells MCF10A (MCF10A cells [3]; [5])
CCc1ccc(NS(=O)(=O)c2ccc(Cl)s2)cc1 [Compound 105] | act as radiosensitizers | NI (NI- no inhibition) | 1.3 | ~50 µM | NI (NI- no inhibition) | NI (NI- no inhibition) | 1 | – | – | – | – | – | – | – | –
O=C1NC(=S)NC(=O)C1=NNc1cccc(C(=O)O)c1 [Compound 198] | – | – | – | – | – | – | – | < 20% | 1 | 2** | > 50 µM | < 20% | < 20% | > 50 µM | 2**
